30 molecules from US12065436B2, “Cardiac sarcomere inhibitors” (Cytokinetics, Inc., priority 2018, dated 2024) can be followed below.

In the assay the target is bovine cardiac myofibrils (full-length cardiac myosin ATPase in the native sarcomere) (Bos taurus (Bovine), UniProt Q9BE39). Description: Skinned bovine cardiac myofibril ATPase assay (PK/LDH-coupled). It counts as biochemical. The conditions noted are these: Ca2+ activating to 75% of maximal rate; for CDMF75 IC15: concentration giving 15% inhibition; for IC50: read-out: CDMF75 IC50. In short, it runs like this:
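Triton-skinned bovine left-ventricle myofibrils (1 mg/mL) in PM 12 buffer (12 mM PIPES, 2 mM MgCl2, pH 6.8) with 50 μM ATP, 0.6 mM EGTA and CaCl2 set for 50% or 75% activation. Steady-state ATPase inhibition followed by PK/LDH-coupled NADH oxidation at 340 nm.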

Where only a bound is given, the exact number is not on record here.

The IC50 is the concentration needed to halve the response being measured.

bovine cardiac myofibrils (full-length cardiac myosin ATPase in the native sarcomere), sequence (Q9BE39 whole entry): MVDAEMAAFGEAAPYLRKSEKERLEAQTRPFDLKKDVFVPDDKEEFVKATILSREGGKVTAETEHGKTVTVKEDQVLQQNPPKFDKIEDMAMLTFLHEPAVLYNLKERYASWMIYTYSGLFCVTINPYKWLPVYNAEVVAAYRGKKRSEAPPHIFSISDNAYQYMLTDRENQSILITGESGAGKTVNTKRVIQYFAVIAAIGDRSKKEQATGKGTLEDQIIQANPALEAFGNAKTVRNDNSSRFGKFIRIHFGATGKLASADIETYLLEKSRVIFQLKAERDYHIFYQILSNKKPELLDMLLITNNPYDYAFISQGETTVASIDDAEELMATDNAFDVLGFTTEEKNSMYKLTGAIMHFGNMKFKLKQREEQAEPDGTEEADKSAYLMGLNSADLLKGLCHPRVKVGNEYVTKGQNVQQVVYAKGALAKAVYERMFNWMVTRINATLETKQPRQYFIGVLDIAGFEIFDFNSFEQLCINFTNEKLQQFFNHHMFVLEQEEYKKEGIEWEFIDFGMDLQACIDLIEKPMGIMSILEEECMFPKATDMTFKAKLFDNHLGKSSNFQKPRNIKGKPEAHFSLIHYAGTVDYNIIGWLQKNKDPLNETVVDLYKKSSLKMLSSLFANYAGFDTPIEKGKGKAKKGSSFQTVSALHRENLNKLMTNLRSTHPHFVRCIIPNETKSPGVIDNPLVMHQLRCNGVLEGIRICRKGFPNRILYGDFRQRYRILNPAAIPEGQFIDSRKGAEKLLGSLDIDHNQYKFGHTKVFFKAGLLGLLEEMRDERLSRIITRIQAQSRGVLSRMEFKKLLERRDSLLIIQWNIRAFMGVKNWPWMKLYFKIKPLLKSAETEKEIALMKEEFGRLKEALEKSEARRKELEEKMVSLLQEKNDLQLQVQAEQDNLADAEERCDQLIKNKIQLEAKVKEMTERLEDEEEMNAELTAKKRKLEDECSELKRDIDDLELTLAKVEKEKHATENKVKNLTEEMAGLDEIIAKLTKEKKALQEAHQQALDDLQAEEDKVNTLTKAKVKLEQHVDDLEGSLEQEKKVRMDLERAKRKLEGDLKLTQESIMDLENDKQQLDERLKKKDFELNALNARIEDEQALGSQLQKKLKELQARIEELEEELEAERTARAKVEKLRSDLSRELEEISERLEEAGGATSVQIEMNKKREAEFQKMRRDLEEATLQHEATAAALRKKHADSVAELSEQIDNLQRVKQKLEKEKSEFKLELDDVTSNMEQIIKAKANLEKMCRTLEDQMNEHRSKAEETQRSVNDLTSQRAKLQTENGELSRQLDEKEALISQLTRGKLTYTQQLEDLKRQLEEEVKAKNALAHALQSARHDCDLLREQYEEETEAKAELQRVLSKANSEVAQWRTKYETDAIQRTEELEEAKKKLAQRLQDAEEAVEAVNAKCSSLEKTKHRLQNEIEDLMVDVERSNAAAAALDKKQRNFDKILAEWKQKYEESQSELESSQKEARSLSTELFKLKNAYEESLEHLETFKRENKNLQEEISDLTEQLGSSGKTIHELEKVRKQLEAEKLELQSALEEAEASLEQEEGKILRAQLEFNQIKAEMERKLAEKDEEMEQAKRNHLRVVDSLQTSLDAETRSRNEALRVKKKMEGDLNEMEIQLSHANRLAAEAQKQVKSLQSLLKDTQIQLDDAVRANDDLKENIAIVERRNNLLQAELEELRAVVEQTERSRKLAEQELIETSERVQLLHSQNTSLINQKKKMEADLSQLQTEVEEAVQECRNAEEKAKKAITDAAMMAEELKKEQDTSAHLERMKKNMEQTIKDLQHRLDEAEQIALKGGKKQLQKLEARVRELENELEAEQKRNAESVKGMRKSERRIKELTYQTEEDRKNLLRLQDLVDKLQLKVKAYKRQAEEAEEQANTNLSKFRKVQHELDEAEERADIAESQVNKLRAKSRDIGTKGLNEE
bovine cardiac myofibrils (full-length cardiac myosin ATPase in the native sarcomere), sequence (P85100 whole entry partner): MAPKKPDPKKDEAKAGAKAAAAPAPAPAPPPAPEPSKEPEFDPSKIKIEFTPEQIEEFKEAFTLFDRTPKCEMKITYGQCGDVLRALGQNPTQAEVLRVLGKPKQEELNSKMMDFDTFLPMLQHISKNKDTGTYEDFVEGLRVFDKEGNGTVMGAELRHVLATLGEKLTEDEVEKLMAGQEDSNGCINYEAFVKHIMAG
bovine cardiac myofibrils (full-length cardiac myosin ATPase in the native sarcomere), sequence (Q3SZE5 whole entry partner): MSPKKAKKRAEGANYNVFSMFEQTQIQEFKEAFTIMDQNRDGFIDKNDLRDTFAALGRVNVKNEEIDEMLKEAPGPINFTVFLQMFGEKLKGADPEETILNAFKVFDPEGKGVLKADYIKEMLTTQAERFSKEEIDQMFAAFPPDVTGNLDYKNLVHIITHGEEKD

Consider `Cc1cc(C(=O)NC2COc3cc(-c4noc(C)n4)ccc32)ccn1` (stereo not drawn) [Compound 18, 2-methyl-N-(6-(5-methyl-1,2,4-oxadiazol-3-yl)-2,3-dihydrobenzofuran-3-yl)isonicotinamide], for which the “CDMF75 IC15” value stood at 1100 nM and the IC50 amounted to 6800 nM.
The matching figures for `CCc1nc(-c2cc(O)c3c(c2)CC[C@H]3NC(=O)c2cnn(C)c2)no1` [Compound 609, N-[(1R)-5-(5-ethyl-1,2,4-oxadiazol-3-yl)-7-hydroxy-2,3-dihydro-1H-inden-1-yl]-1-methyl-1H-pyrazole-4-carboxamide]: 300 nM and 900 nM.
Turning to `Cc1nc(-c2ccc3c(c2)OC[C@H]3NC(=O)c2conc2C)no1` [Compound 347, (S)-3-methyl-N-(6-(5-methyl-1,2,4-oxadiazol-3-yl)-2,3-dihydrobenzofuran-3-yl)isoxazole-4-carboxamide], the “CDMF75 IC15” value was found to be 500 nM and the IC50 stood at 1600 nM.
Take `Cc1nc(-c2ccc3c(c2)CC[C@H]3NC(=O)c2ocnc2C)no1` [Compound 449, (R)-4-methyl-N-(5-(5-methyl-1,2,4-oxadiazol-3-yl)-2,3-dihydro-1H-inden-1-yl)oxazole-5-carboxamide]: the “CDMF75 IC15” value is 500 nM and the half-maximal inhibitory concentration (IC50) came out at 1500 nM.
On to `Cc1nc(-c2ccc3c(c2)CCC3NC(=O)Nc2ncccn2)no1` (stereo not drawn) [Compound 110, 1-(5-(5-methyl-1,2,4-oxadiazol-3-yl)-2,3-dihydro-1H-inden-1-yl)-3-(pyrimidin-2-yl)urea], for which the “CDMF75 IC15” value was 39200 nM and the IC50 is > 39200 nM.
In the same order, the values of `COC(=O)N[C@@H]1CCc2cc(-c3nc(C4CC4)no3)ccc21` [Compound 350, methyl (R)-(5-(3-cyclopropyl-1,2,4-oxadiazol-5-yl)-2,3-dihydro-1H-inden-1-yl)carbamate] are 500 nM and 2100 nM.
On to `Cc1cc(C(=O)NC2CCc3cc(-c4ncc(C)o4)ccc32)ccn1` (stereo not drawn) [Compound 140, 2-methyl-N-(5-(5-methyloxazol-2-yl)-2,3-dihydro-1H-inden-1-yl)isonicotinamide], for which the “CDMF75 IC15” value was found to be 7600 nM and the half-inhibitory concentration (IC50) is > 39200 nM.
In the same order, the values of `CC(C)c1nc(-c2ccc3c(c2)CC[C@H]3NC(=O)c2cnn(CCO)c2)no1` [Compound 522, (R)-1-(2-hydroxyethyl)-N-(5-(5-isopropyl-1,2,4-oxadiazol-3-yl)-2,3-dihydro-1H-inden-1-yl)-1H-pyrazole-4-carboxamide] are 2000 nM and 9100 nM.
The matching figures for `CCc1cc(C(=O)N[C@@H]2CCc3cc(-c4noc(CC)n4)ccc32)ccn1` [Compound 660, (R)-2-ethyl-N-(5-(5-ethyl-1,2,4-oxadiazol-3-yl)-2,3-dihydro-1H-inden-1-yl)isonicotinamide]: 600 nM and 2000 nM.
The matching figures for `Cc1noc(-c2ccc3c(c2)OC[C@H]3NC(=O)c2cnn(C)c2C)n1` [Compound 343, (S)-1,5-dimethyl-N-(6-(3-methyl-1,2,4-oxadiazol-5-yl)-2,3-dihydrobenzofuran-3-yl)-1H-pyrazole-4-carboxamide]: 1800 nM and 6600 nM.
`CCc1nc(-c2ccc3c(c2)CC[C@H]3NC(=O)c2cccc(CO)c2)no1` [Compound 653, (R)-N-(5-(5-ethyl-1,2,4-oxadiazol-3-yl)-2,3-dihydro-1H-inden-1-yl)-3-(hydroxymethyl)benzamide]: the “CDMF75 IC15” value was found to be 200 nM and the IC50 is 700 nM.
In the same order, the values of `[2H]C([2H])([2H])c1nc(-c2ccc3c(c2)OC[C@H]3NC(=O)c2cn(C)nc2C)no1` [Compound 270, (S)-1,3-dimethyl-N-(6-(5-(methyl-d3)-1,2,4-oxadiazol-3-yl)-2,3-dihydrobenzofuran-3-yl)-1H-pyrazole-4-carboxamide] are 900 nM and 3100 nM.
The matching figures for `Cc1cc(C(=O)N[C@@H]2CCc3cc(-c4noc(C(F)F)n4)ccc32)ccn1` [Compound 32, (R)-N-(5-(5-(difluoromethyl)-1,2,4-oxadiazol-3-yl)-2,3-dihydro-1H-inden-1-yl)-2-methylisonicotinamide]: 600 nM and 2300 nM.
The matching figures for `CCc1nc(-c2ccc3c(c2F)CC[C@H]3NC(=O)c2cnn(C)c2)no1` [Compound 562, (R)-N-(5-(5-ethyl-1,2,4-oxadiazol-3-yl)-4-fluoro-2,3-dihydro-1H-inden-1-yl)-1-methyl-1H-pyrazole-4-carboxamide]: 300 nM and 1000 nM.
Turning to `CCc1nc(-c2ccc3c(c2)OCCC3NC(=O)c2ccnn2C)no1` (stereo not drawn) [Compound 536, N-(7-(5-ethyl-1,2,4-oxadiazol-3-yl)chroman-4-yl)-1-methyl-1H-pyrazole-5-carboxamide], the “CDMF75 IC15” value was determined as 1100 nM and the 50% inhibitory concentration (IC50) was found to be 3500 nM.
The matching figures for `Cc1cc(C(=O)NC2COc3cc(-c4noc(C)n4)cnc32)ccn1` (stereo not drawn) [Compound 187, 2-methyl-N-(6-(5-methyl-1,2,4-oxadiazol-3-yl)-2,3-dihydrofuro[3,2-b]pyridin-3-yl)isonicotinamide]: 11500 nM and > 39200 nM.
In the same order, the values of `Cc1cc(C(=O)NC2COc3cc(-c4noc(C(F)F)n4)ccc32)n(C)n1` (stereo not drawn) [Compound 190, N-(6-(5-(difluoromethyl)-1,2,4-oxadiazol-3-yl)-2,3-dihydrobenzofuran-3-yl)-1,3-dimethyl-1H-pyrazole-5-carboxamide] are 600 nM and 2000 nM.
In the same order, the values of `CCc1nc(-c2ccc3c(c2)CC[C@H]3NC(=O)c2csc(C)n2)no1` [Compound 590, (R)-N-(5-(5-ethyl-1,2,4-oxadiazol-3-yl)-2,3-dihydro-1H-inden-1-yl)-2-methylthiazole-4-carboxamide] are 1400 nM and 6800 nM.
With `CCc1nc(-c2ccc3c(c2)CC[C@H]3NC(=O)c2cccc(CO)c2F)no1` [Compound 654, (R)-N-(5-(5-ethyl-1,2,4-oxadiazol-3-yl)-2,3-dihydro-1H-inden-1-yl)-2-fluoro-3-(hydroxymethyl)benzamide], the “CDMF75 IC15” value was 600 nM and the half-inhibitory concentration (IC50) was determined as 2200 nM.
The matching figures for `CCc1nc(-c2ccc3c(c2)CC[C@H]3NC(=O)c2cc(C)on2)no1` [Compound 569, (R)-N-(5-(5-ethyl-1,2,4-oxadiazol-3-yl)-2,3-dihydro-1H-inden-1-yl)-5-methylisoxazole-3-carboxamide]: 700 nM and 2800 nM.
The matching figures for `Cc1cc(C(=O)N[C@@H]2CCc3cc(-c4noc(C(F)F)n4)ccc32)n(C)n1` [Compound 101, (R)-N-(5-(5-(difluoromethyl)-1,2,4-oxadiazol-3-yl)-2,3-dihydro-1H-inden-1-yl)-1,3-dimethyl-1H-pyrazole-5-carboxamide]: 300 nM and 1100 nM.
In the same order, the values of `CC(=O)N[C@@H]1COc2cc(-c3noc(C4CCC4)n3)ccc21` [Compound 458, (S)-N-(6-(5-cyclobutyl-1,2,4-oxadiazol-3-yl)-2,3-dihydrobenzofuran-3-yl)acetamide] are 2000 nM and 9200 nM.
Turning to `COC(=O)N[C@@H]1CCc2cc(-c3noc(C(C)C)n3)ccc21` [Compound 307, methyl (R)-(5-(5-isopropyl-1,2,4-oxadiazol-3-yl)-2,3-dihydro-1H-inden-1-yl)carbamate], the “CDMF75 IC15” value was 600 nM and the IC50 is 2900 nM.
In the same order, the values of `COCCn1cc(C(=O)N[C@@H]2CCc3cc(-c4noc(C(C)C)n4)ccc32)cn1` [Compound 511, (R)-N-(5-(5-isopropyl-1,2,4-oxadiazol-3-yl)-2,3-dihydro-1H-inden-1-yl)-1-(2-methoxyethyl)-1H-pyrazole-4-carboxamide] are 3000 nM and 14000 nM.
In the same order, the values of `COCc1nc(-c2ccc3c(c2)CC[C@H]3NC(=O)c2nnc(C)o2)no1` [Compound 698, (R)-N-(5-(5-(methoxymethyl)-1,2,4-oxadiazol-3-yl)-2,3-dihydro-1H-inden-1-yl)-5-methyl-1,3,4-oxadiazole-2-carboxamide] are 900 nM and 3500 nM.
In the same order, the values of `CCc1nc(-c2ccc3c(c2)OC[C@H]3NC(=O)NCCO)no1` [Compound 745, (S)-1-(6-(5-ethyl-1,2,4-oxadiazol-3-yl)-2,3-dihydrobenzofuran-3-yl)-3-(2-hydroxyethyl)urea] are 800 nM and 3800 nM.
As to `CCc1nc(-c2ccc3c(c2)CC[C@H]3NC(=O)c2ccnn2CCO)no1` [Compound 607, (R)-N-(5-(5-ethyl-1,2,4-oxadiazol-3-yl)-2,3-dihydro-1H-inden-1-yl)-1-(2-hydroxyethyl)-1H-pyrazole-5-carboxamide], the “CDMF75 IC15” value is 2900 nM and the IC50 came out at 15400 nM.
The matching figures for `CCOC(=O)c1cc(C(=O)N[C@@H]2CCc3cc(-c4noc(CC)n4)ccc32)ccn1` [Compound 555, Ethyl (R)-4-((5-(5-ethyl-1,2,4-oxadiazol-3-yl)-2,3-dihydro-1H-inden-1-yl)carbamoyl)picolinate]: 1000 nM and 3500 nM.
In the case of `Cc1nc(-c2ccc3c(c2)CCC3NC(=O)c2cn(C)nc2C)no1` (stereo not drawn) [Compound 55, 1,3-dimethyl-N-(5-(5-methyl-1,2,4-oxadiazol-3-yl)-2,3-dihydro-1H-inden-1-yl)-1H-pyrazole-4-carboxamide], the “CDMF75 IC15” value amounted to 2000 nM and the IC50 is 6800 nM.
In the same order, the values of `CCc1nc(-c2ccc3c(c2)OCC3NC(=O)c2cc(C)nn2C)no1` (stereo not drawn) [Compound 230, N-(6-(5-ethyl-1,2,4-oxadiazol-3-yl)-2,3-dihydrobenzofuran-3-yl)-1,3-dimethyl-1H-pyrazole-5-carboxamide] are 600 nM and 1800 nM.
